# In patent US8273900B2, “Organic compounds” (Novartis AG, priority 2008, dated 2012):
# Biological target: T1, human recombinant CRF-1 receptor (Homo sapiens, UniProt P34998)
# T1 construct: expressed in transfected cells; host or cells: CHO cells (G418-selected)
# T1 sequence (P34998 24-415): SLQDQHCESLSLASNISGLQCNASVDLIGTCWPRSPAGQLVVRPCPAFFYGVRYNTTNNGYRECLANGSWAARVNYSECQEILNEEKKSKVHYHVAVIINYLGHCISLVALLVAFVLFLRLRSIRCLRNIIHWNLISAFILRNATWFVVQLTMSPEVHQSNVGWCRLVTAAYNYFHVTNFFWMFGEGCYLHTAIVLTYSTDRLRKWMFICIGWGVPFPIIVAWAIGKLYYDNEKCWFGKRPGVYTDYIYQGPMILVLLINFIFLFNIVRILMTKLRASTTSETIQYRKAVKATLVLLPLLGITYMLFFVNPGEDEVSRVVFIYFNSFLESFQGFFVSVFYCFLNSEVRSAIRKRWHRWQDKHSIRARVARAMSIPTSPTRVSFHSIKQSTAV
# Experiment: CRF-1 receptor antagonism, HTRF cAMP assay in CHO cells in the presence of 1 nM CRF
# Assay type: cell-based
# Conditions: CHO cells expressing human recombinant CRF-1; inhibition of the effect of 1 nM CRF on cAMP
# Protocol: The CRF-1 or CRF-2α receptor antagonistic activity of the agents of the invention has been determined in vitro in the following assay:
# Chinese hamster ovary (CHO) cells expressing either the human recombinant CRF-1 or CRF-2a receptors (Chen et al., Proc Natl Acad Sci USA 90, 8967-8971, 1993; Liaw et al., Endocrinology 137, 72-77, 1996) are propagated in Dulbecco's modified Eagle medium supplemented with 10% foetal calf serum, non-essential amino acids, 100 U/ml penicillin, 100 mg/l streptomycin and 1 g/l geneticin (G418). For cyclic AMP determinations the Homogeneous Time-Resolved Fluoresce (HTRF) cAMP dynamic 2 kit (Cisbio International, France) was used as per manufacturers' instructions. CHO cells, previously cryopreserved, were thawed, centrifuged for 7 mins at 1200 rpm and resuspended in serum free media, then pipetted out onto clear bottomed black tissue culture treated 384-well microtitre plates (Corning Inc, US) at 2,000 cells per well. Compounds of the invention, prepared in DMSO, and subsequently diluted 50 fold in assay buffer (1× Hanks balanced salt solution, 0.2% (w/v) bovine serum albumin, 1.7 mM isobutylmethylxanthine and 10 mM Hepes, pH 7.4) are then added onto the cell containing plate where a further 2 fold dilution is performed and incubated for 15 min. Following incubation, buffer containing a 5 times final concentration of agonist is added to the plate and incubated for 30 min. Finally, d2 dye labelled cAMP and cryptate labeled anti-cAMP antibody, both made in lysis buffer, are added to the plate followed by a settling period of 1 hour. During the settling period cAMP produced by the cells competes with the d2 labelled cAMP for the anti-cAMP cryptate. The plate is read on the Pherastar (BMG, Germany). Increasing levels of endogenous cAMP produced by cells can be followed by a decrease of fluorescent signal and vice versa. Values represented by a change in arbitrary fluorescence units are converted into cAMP concentrations by use of a standard curve the reagents for which are supplied with the kit. Antagonist dose response curves (1 nM-30 μM) are constructed in the presence of 1 nM CRF. IC50 values of antagonists are calculated by fitting the percent inhibition of the effect of CRF by increasing concentrations of the antagonists. The fit is performed using the nonlinear logistic function of the Activitybase software package v 5.4.5.27 (IDBS, UK).
row,Structure (SMILES),IC50
1,"O=C(N[C@H]1CC[C@H](CNc2n[nH]cc2-c2ccc(Cl)cc2)CC1)c1cc(C(F)(F)F)ccc1Cl [Example 19.80, Trans-2-chloro-N-(4-((4-(4-chlorophenyl)-1H-pyrazol-3-ylamino)methyl)cyclohexyl)-5-(trifluoromethyl) benzamide]",15 nM
2,"Cc1cc(NC[C@H]2CC[C@H](NC(=O)c3cc(Cl)cnc3C)CC2)ncc1Cl [Example 19.83, Trans-5-chloro-N-(4-((5-chloro-4-methylpyridin-2-ylamino)methyl)cyclohexyl)-2-methyl-nicotinamide]",38 nM
3,"Cc1[nH]nc(NC[C@H]2CC[C@H](NC(=O)c3cc(C(F)(F)F)ccc3Cl)CC2)c1-c1ccc(Cl)cc1 [Example 19.91, Trans-2-chloro-N-(4-((4-(4-chlorophenyl)-5-methyl-1H-pyrazol-3-ylamino)methyl)cyclohexyl)-5-(trifluoromethyl) benzamide]",57 nM
4,"O=C(N[C@H]1CC[C@H](CNc2n[nH]c3cccnc23)CC1)c1cc(C(F)(F)F)ccc1Cl [Example 19.93, Trans-N-(4-((1H-pyrazolo [4,3-b]pyridin-3-ylamino)methyl)cyclohexyl)-2-chloro-5-(trifluoromethyl) benzamide]",69 nM
5,"O=C(N[C@H]1CC[C@H](CNc2n[nH]cc2-c2ccccc2)CC1)c1cc(C(F)(F)F)ccc1Cl [Example 19.94, Trans-2-chloro-N-(4-((4-phenyl-1H-pyrazol-3-ylamino)methyl)cyclohexyl)-5-(trifluoromethyl) benzamide]",59 nM
6,"COc1ccc(Cl)c(NC[C@H]2CC[C@H](NC(=O)c3cc(C(F)(F)F)ccc3Cl)CC2)n1 [Example 19.98, Trans-2-Chloro-N-{4-[(3-chloro-6-methoxy-pyridin-2-ylamino)-methyl]-cyclohexyl}-5-trifluoromethyl-benzamide]",52 nM
7,"O=C(N[C@H]1CC[C@H](CNc2nnnn2-c2ccccc2)CC1)c1cc(C(F)(F)F)ccc1Cl [Example 19.100, Trans-2-Chloro-N-{4-[(1-phenyl-1H-tetrazol-5-ylamino)-methyl]-cyclohexyl}-5-trifluoromethyl-benzamide]",29 nM
8,"Cn1cc(-c2ccccc2)c(NC[C@H]2CC[C@H](NC(=O)c3cc(C(F)(F)F)ccc3Cl)CC2)n1 [Example 19.101, Trans-2-Chloro-N-{4-[(1-methyl-4-phenyl-1H-pyrazol-3-ylamino)-methyl]-cyclohexyl}-5-trifluoromethyl-benzamide]",69 nM
9,"Cc1noc(NC[C@H]2CC[C@H](NC(=O)c3cc(C(F)(F)F)ccc3Cl)CC2)c1C [Example 19.102, Trans-2-Chloro-N-{4-[(3,4-dimethyl-isoxazol-5-ylamino)-methyl]-cyclohexyl}-5-trifluoromethyl-benzamide]",76 nM
10,"O=C(N[C@H]1CC[C@H](CNc2[nH]ncc2-c2cccnc2)CC1)c1cc(C(F)(F)F)ccc1Cl [Example 19.103, Trans-2-Chloro-N-{4-[(4-pyridin-3-yl-2H-pyrazol-3-ylamino)-methyl]-cyclohexyl}-5-trifluoromethyl-benzamide]",37 nM
11,"[2H]C([2H])([2H])c1ncc(NC[C@H]2CC[C@H](NC(=O)c3cc(C(F)(F)F)ccc3Cl)CC2)cc1Cl [Example 19.104, Trans-2-Chloro-N-{4-[(5-chloro-6-d3-methyl-pyridin-3-ylamino)-methyl]-cyclohexyl}-5-trifluoromethyl-benzamide]",80 nM
12,"Cc1ncc(Cl)cc1C(=O)N[C@H]1CC[C@H](CNc2cc(C(F)(F)F)n[nH]2)CC1 [Example 19.107, Trans-5-Chloro-2-methyl-N-{4-[(5-trifluoromethyl-2H-pyrazol-3-ylamino)-methyl]-cyclohexyl}-nicotinamide]",118 nM
13,"Cc1ncc(Cl)cc1C(=O)N[C@H]1CC[C@H](CNc2ccc(F)cn2)CC1 [Example 19.108, Trans-5-Chloro-N-{4-[(5-fluoro-pyridin-2-ylamino)-methyl]-cyclohexyl}-2-methyl-nicotinamide]",72 nM
14,"CCCc1cc(NC[C@H]2CC[C@H](NC(=O)c3cc(Cl)cnc3C)CC2)n[nH]1 [Example 19.110, Trans-2-Chloro-2 methyl-N-{4-[(5-propyl-1H-pyrazol-3-ylamino)-methyl]-cyclohexyl}-nicotinamide]",97 nM
15,"COc1ncc(Cl)cc1NC[C@H]1CC[C@H](NC(=O)c2cc(C(F)(F)F)ccc2Cl)CC1 [Example 19.113, Trans-2-Chloro-N-{4-[(5-chloro-2-methoxy-pyridin-3-ylamino)-methyl]-cyclohexyl}-5-trifluoromethyl-benzamide]",153 nM
16,"Cc1n[nH]c(NC[C@H]2CC[C@H](NC(=O)c3cc(C(F)(F)F)ccc3Cl)CC2)c1Cl [Example 19.114, Trans-2-Chloro-N-{4-[(4-chloro-5-methyl-2H-pyrazol-3-ylamino)-methyl]-cyclohexyl}-5-trifluoromethyl-benzamide]",34 nM
17,"Cc1cc(NC[C@H]2CC[C@H](NC(=O)c3cc(C(F)(F)F)ccc3Cl)CC2)n(-c2ccc(Cl)cc2)n1 [Example 19.116, Trans-2-Chloro-N-(4-{[2-(4-chloro-phenyl)-5-methyl-2H-pyrazol-3-ylamino]-methyl}-cyclohexyl)-5-trifluoromethyl-benzamide]",59 nM
18,"CCc1[nH]nc(NC[C@H]2CC[C@H](NC(=O)c3cc(C(F)(F)F)ccc3Cl)CC2)c1C [Example 19.117, Trans-2-Chloro-N-{4-[(5-ethyl-4-methyl-1H-pyrazol-3-ylamino)-methyl]-cyclohexyl}-5-trifluoromethyl-benzamide]",43 nM
19,"O=C(N[C@H]1CC[C@H](Cn2ncc3ccccc32)CC1)c1cc(C(F)(F)F)ccc1Cl [Example 21.1, N-(4-((1H-indazol-1-yl)methyl)cyclohexyl)-2-chloro-5-(trifluoromethyl) benzamide]",114 nM
20,"O=C(N[C@H]1CC[C@H](Cn2cc3ccccc3n2)CC1)c1cc(C(F)(F)F)ccc1Cl [Example 21.2, 2-Chloro-N-(4-indazol-2-ylmethyl-cyclohexyl)-5-trifluorometnyl-benzamide]",338 nM
21,"Cc1nc(C)n(C[C@H]2CC[C@H](NC(=O)c3cc(C(F)(F)F)ccc3Cl)CC2)n1 [Example 21.4, 2-Chloro-N-[4-(3,5-dimethyl-[1,2,4]triazol-1-ylmethyl)-cyclohexyl]-5-trifluoromethyl-benzamide]",299 nM
22,"Cc1nn(C[C@H]2CC[C@H](NC(=O)c3cc(C(F)(F)F)ccc3Cl)CC2)c(C)c1Cl [Example 21.8, 2-Chloro-N-[4-(4-chloro-3,5-dimethyl-pyrazol-1-ylmethyl)-cyclohexyl]-5-trifluoromethyl-benzamide]",113 nM
23,"O=C(N[C@H]1CC[C@H](Cn2ccc(-c3ccccc3)n2)CC1)c1cc(C(F)(F)F)ccc1Cl [Example 22.3, 2-Chloro-N-[4-(3-phenyl-pyrazol-1-ylmethyl)-cyclohexyl]-5-trifluoromethyl-benzamide]",234 nM
24,"Cc1cc(C)n(C[C@H]2CC[C@H](NC(=O)c3cc(Cl)cnc3C)CC2)n1 [Example 22.4, 5-Chloro-N-[4-(3,5-dimethyl-pyrazol-1-ylmethyl)-cyclohexyl]-2-methyl-nicotinamide]",350 nM
25,"Cc1ncc(Cl)cc1C(=O)N[C@H]1CC[C@H](Cn2nc(C(F)(F)F)cc2C)CC1 [Example 22.7, Trans-5-Chloro-2-methyl-N-[4-(5-methyl-3-trifluoromethyl-pyrazol-1-ylmethyl)-cyclohexyl]-nicotinamide]",187 nM
